In ChEMBL document CHEMBL3745631, “Discovery of highly potent and selective Bruton's tyrosine kinase inhibitors: Pyridazinone analogs with improved metabolic stability” (Bioorg Med Chem Lett, 2016):

Experiments:
[1] = target: Phosphatidylinositol 4,5-bisphosphate 3-kinase catalytic subunit alpha isoform (Homo sapiens) (UniProt P42336); experiment: Inhibition of PI3KA (unknown origin) at 1 uM
[2] = target: Serine/threonine-protein kinase Nek9 (Homo sapiens) (UniProt Q8TD19); experiment: Inhibition of NEK9 (unknown origin) at 1 uM
[3] = target: Phosphatidylinositol 4,5-bisphosphate 3-kinase catalytic subunit gamma isoform (Homo sapiens) (UniProt P48736); experiment: Inhibition of PI3K-G (unknown origin) at 1 uM
[4] = target: RAC-beta serine/threonine-protein kinase (Homo sapiens) (UniProt P31751); experiment: Inhibition of AKT2 (unknown origin) at 1 uM
[5] = target: Receptor-interacting serine/threonine-protein kinase 2 (Homo sapiens) (UniProt O43353); experiment: Inhibition of RIPK2 (unknown origin) at 1 uM
[6] = target: Death-associated protein kinase 3 (Homo sapiens) (UniProt O43293); experiment: Inhibition of ZIPK (unknown origin) at 1 uM
[7] = target: MAP kinase-activated protein kinase 2 (Homo sapiens) (UniProt P49137); experiment: Inhibition of MAPKAPK2 (unknown origin) at 1 uM
[8] = target: Inhibitor of nuclear factor kappa-B kinase subunit alpha (Homo sapiens) (UniProt O15111); experiment: Inhibition of IKK alpha (unknown origin) at 1 uM
[9] = target: Serine/threonine-protein kinase Nek6 (Homo sapiens) (UniProt Q9HC98); experiment: Inhibition of NEK6 (unknown origin) at 1 uM
[10] = target: G protein-coupled receptor kinase 6 (Homo sapiens) (UniProt P43250); experiment: Inhibition of GRK6 (unknown origin) at 1 uM
[11] = target: Inhibitor of nuclear factor kappa-B kinase subunit epsilon (Homo sapiens) (UniProt Q14164); experiment: Inhibition of IKKepsilon (unknown origin) at 1 uM
Inhibitor of nuclear factor kappa-B kinase subunit epsilon (Homo sapiens), sequence (Q14164 whole entry): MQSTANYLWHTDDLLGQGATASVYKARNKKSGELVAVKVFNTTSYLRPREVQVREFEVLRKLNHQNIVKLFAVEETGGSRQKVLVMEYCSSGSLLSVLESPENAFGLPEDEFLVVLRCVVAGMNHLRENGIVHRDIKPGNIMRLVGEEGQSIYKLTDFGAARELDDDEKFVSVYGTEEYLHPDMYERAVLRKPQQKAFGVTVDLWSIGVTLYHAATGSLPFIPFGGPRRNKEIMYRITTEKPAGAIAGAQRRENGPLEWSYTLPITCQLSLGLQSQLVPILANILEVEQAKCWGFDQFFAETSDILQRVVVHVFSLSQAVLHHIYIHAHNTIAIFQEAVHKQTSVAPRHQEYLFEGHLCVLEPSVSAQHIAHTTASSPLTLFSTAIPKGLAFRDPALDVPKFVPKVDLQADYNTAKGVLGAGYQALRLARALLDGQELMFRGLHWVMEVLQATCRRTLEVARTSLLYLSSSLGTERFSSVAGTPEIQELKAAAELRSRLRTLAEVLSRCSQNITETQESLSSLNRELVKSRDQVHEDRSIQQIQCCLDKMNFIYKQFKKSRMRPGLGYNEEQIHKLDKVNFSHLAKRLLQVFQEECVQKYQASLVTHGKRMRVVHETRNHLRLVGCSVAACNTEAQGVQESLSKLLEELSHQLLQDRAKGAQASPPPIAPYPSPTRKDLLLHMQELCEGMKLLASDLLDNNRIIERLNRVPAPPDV

Inhibitor of nuclear factor kappa-B kinase subunit alpha (Homo sapiens), sequence (O15111 whole entry): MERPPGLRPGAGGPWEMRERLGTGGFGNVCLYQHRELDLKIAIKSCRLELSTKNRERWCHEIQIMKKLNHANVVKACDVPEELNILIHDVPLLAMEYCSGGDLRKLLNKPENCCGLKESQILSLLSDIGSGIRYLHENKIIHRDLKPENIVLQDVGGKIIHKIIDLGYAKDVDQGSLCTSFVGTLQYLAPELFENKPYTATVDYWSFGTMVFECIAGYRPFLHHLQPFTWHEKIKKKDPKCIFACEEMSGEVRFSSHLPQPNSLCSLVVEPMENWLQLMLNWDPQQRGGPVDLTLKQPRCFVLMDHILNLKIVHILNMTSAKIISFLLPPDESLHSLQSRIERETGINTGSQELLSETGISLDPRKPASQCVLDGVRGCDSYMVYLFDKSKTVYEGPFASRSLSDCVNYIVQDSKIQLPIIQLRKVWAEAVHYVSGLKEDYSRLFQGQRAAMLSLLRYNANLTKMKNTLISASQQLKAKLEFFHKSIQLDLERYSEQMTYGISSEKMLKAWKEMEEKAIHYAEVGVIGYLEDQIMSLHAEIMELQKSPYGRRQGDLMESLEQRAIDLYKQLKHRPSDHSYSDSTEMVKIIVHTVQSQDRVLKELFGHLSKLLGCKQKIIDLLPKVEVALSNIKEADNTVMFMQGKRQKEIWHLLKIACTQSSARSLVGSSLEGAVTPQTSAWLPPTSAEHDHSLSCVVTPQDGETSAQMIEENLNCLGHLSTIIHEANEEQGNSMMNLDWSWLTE
Phosphatidylinositol 4,5-bisphosphate 3-kinase catalytic subunit alpha isoform (Homo sapiens), sequence (P42336 whole entry, canonical isoform): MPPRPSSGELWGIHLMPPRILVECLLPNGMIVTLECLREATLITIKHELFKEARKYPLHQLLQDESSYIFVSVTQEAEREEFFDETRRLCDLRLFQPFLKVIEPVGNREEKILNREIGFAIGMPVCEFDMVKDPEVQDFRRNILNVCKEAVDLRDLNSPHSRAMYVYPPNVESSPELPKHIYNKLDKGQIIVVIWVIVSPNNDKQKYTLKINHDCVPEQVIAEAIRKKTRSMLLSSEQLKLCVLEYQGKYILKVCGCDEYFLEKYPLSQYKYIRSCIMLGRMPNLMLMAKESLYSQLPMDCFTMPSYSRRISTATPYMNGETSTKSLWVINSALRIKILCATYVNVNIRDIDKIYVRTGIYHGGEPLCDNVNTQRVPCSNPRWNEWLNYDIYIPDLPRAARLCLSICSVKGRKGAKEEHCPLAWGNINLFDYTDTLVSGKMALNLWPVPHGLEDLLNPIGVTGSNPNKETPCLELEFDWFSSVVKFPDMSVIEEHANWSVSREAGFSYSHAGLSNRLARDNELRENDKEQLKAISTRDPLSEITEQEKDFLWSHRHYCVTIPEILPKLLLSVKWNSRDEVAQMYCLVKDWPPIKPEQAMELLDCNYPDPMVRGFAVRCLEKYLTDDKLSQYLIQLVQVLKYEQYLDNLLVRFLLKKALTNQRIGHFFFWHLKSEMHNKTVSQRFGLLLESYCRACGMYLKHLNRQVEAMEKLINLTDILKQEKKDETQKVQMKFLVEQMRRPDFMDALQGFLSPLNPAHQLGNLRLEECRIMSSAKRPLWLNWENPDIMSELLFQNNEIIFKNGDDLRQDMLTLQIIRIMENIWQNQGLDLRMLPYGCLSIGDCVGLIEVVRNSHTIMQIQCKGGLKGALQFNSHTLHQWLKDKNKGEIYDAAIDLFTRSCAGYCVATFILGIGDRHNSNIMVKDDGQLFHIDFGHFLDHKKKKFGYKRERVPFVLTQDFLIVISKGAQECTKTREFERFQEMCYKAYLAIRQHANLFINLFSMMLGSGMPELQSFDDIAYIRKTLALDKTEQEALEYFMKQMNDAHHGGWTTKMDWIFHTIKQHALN
MAP kinase-activated protein kinase 2 (Homo sapiens), sequence (P49137 whole entry, looked up): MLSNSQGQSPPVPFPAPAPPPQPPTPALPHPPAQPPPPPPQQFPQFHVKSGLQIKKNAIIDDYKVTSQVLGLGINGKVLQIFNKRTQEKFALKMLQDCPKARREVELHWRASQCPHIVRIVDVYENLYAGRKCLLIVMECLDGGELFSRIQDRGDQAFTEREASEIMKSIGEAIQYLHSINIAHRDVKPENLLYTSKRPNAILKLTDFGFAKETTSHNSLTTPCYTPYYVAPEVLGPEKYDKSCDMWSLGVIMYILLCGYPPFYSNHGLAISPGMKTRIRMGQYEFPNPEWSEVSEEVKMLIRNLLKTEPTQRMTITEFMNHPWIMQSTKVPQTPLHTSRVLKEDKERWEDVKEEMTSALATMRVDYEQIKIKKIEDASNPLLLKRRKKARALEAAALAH
RAC-beta serine/threonine-protein kinase (Homo sapiens), sequence (P31751 whole entry): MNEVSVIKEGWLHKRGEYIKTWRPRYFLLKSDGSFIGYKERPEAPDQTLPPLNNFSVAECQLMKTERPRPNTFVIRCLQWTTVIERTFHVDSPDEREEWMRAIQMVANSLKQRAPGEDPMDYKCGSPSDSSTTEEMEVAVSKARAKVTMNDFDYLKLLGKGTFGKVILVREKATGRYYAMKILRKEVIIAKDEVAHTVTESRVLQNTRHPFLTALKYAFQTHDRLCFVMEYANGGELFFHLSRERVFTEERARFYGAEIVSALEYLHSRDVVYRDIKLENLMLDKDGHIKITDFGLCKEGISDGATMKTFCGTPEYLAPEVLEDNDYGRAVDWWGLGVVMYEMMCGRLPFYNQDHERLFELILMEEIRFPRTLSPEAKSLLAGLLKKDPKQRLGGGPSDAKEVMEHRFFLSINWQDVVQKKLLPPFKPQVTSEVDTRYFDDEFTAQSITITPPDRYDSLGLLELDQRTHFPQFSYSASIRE
Phosphatidylinositol 4,5-bisphosphate 3-kinase catalytic subunit gamma isoform (Homo sapiens), sequence (P48736 whole entry, looked up, canonical isoform): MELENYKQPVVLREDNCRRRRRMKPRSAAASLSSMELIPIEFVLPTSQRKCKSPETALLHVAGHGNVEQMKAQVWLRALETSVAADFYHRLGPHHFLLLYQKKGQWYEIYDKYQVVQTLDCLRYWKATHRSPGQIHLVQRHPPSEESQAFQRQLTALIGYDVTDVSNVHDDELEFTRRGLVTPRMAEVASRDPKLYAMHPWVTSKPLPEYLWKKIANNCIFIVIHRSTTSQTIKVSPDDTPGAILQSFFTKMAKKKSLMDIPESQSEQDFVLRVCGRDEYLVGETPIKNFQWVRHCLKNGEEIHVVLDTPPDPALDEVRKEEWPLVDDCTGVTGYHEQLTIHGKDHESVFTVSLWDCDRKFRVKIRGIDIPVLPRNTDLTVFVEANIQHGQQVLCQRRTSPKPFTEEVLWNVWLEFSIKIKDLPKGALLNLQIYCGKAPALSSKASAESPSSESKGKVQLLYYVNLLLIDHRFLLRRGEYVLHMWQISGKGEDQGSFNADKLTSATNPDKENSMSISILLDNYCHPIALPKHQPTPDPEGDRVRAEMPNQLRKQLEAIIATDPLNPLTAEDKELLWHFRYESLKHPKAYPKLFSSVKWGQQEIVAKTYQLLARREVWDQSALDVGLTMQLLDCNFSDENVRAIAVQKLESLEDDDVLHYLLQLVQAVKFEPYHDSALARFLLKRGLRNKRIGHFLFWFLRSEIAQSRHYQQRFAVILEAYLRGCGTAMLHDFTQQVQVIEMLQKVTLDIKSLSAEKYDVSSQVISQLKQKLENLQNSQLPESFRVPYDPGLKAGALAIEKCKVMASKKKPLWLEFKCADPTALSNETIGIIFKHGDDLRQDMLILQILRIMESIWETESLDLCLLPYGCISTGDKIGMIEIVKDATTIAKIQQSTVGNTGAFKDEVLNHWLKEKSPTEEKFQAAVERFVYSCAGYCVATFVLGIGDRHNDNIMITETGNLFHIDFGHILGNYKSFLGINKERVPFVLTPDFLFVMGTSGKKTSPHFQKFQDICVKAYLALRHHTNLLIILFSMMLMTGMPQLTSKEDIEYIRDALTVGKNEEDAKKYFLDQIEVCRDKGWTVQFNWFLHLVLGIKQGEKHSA
Serine/threonine-protein kinase Nek6 (Homo sapiens), sequence (Q9HC98 whole entry): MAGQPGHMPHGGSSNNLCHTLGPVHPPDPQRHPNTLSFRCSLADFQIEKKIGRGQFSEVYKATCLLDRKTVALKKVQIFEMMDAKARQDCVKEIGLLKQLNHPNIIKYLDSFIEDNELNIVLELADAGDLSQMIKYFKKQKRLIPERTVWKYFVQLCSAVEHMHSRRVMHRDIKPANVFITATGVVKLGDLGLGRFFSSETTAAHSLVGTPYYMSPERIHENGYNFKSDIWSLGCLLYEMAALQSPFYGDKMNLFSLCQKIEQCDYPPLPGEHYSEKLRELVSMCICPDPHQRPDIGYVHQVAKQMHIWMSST

Cc1c(-c2cc(Nc3cc4n(n3)CCN(C)C4)c(=O)[nH]n2)ccc(F)c1NC(=O)c1cc2ccccc2s1
inhibition [1]: 5.7%
inhibition [2]: -7.6%
inhibition [3]: 2.5%
inhibition [4]: -0.3%
inhibition [5]: -0.4%
inhibition [6]: -2%
inhibition [7]: 10.8%
inhibition [8]: 5.3%
inhibition [9]: 5.3%
inhibition [10]: 4.7%
inhibition [11]: -5.8%
